For the series, the system named is MCF-7/ADR cells. Briefly: MTT cell viability assay (small molecule drug delivery). As to conditions: average of triplicate. The series is classed as cell-based. As for the experimental part: For DOX intercalation into the Cy5-labeled Td, DOX (1 mM) was mixed with the fluorescent DNA tetrahedron (10 μM) for 1 h and then run through NAP10 (G25-DNA grade column, GE Healthcare, USA) to remove the free DOX remaining in solution. The number of intercalated DOX molecules per DNA tetrahedron was calculated using the extinction coefficient of Cy5 at 633 nm (ϵ=230400) and that of DOX at 480 nm (ϵ=10410), respectively.
Drug-sensitive MCF-7 cells and drug-resistant MCF-7/ADR cells were used for cell viability assays. Cytotoxicity of Td was estimated using an MTT assay. Briefly, 8×10^3 mammalian cells were seeded with media (100 μL) in 96-well plates and cultured overnight to reach ˜80% confluency. The cells were then incubated in the fresh media containing Td at 37° C. for 6 h in the CO2 chamber. […] Then, thiazolyl blue tetrazolium bromide (MTT, TACS, Germany) solution (10 μL) was added to each well, followed by 4 h incubation at 37° C. Next, cells were lysed with 200 μL of dimethyl sulfoxide (DMSO, Sigma-Aldrich, USA). After overnight incubation at room temperature, the absorbance was measured at 580 nm using a microplate reader (SpectraMaxPlus™, Molecular Devices, USA).
Background: Tetrazolium dyes change colour on reduction, which living cells bring about.

Structures are written as SMILES.

In the case of `COc1cccc2c1C(=O)c1c(O)c3c(c(O)c1C2=O)C[C@@](O)(C(=O)CO)C[C@@H]3O[C@H]1C[C@H](N)[C@H](O)[C@H](C)O1` [Free-DOX, doxorubicin], the “Cell viability assay (%)” value turned out to be 98.9% (24 h), 93.6% (48 h) and 89.2% (72 h).

(Values after patent US9919001B2, “Drug carrier having L-DNA nanocage structure” (Korea Institute of Science and Technology, priority 2013, dated 2018).)
